Results on one compound are retold here after ChEMBL document CHEMBL6153040, “Discovery of the salicylaldehyde-based compound DDO-02267 as a lysine-targeting covalent inhibitor of ALKBH5” (Eur J Med Chem, 2025).

Activity calls are given as the source filed them. The calls are words filed in the database; no cut-off is given here.

As usually defined, the Kd is a measure of binding affinity in units of concentration. Usually IC50 stands for the point on the concentration scale where inhibition reaches its midpoint. Read a low IC50 as greater potency in that assay.

Assay [1] concerns the target T1, RNA demethylase ALKBH5 (Homo sapiens, UniProt Q6P6C2). The experiment in a line: Binding affinity to ALKBH5 (66 to 292 residues) (unknown origin) extracted from Escherichia coli BL21 (DE3) cells assessed as dissociation constant incubated for 1 hrs by MST analysis.
In assay [2] the target is T1, RNA demethylase ALKBH5. The experiment in a line: Binding affinity to ALKBH5 (66 to 292 residues) (unknown origin) extracted from Escherichia coli BL21 (DE3) cells assessed as dissociation constant incubated for 4 hrs by MST analysis.
The target in assay [3] is T2, Alpha-ketoglutarate-dependent dioxygenase alkB homolog 3 (Homo sapiens, UniProt Q96Q83).
T2 sequence (Q96Q83 whole entry): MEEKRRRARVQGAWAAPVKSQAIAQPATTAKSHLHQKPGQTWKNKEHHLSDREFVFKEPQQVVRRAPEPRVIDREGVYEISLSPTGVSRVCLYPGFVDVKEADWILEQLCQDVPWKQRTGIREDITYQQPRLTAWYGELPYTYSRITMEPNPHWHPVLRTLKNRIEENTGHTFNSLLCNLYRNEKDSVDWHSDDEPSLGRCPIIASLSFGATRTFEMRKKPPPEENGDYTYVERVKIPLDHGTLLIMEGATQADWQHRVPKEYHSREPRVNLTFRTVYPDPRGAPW
The experiment in a line: Inhibition of ALKBH3 (unknown origin) by fluorescence polarization assay.

A short description of assay [4]: Selectivity ratio of IC50 for FTO (32 to 505 residues) (unknown origin) extracted from Escherichia coli BL21 (DE3) cells to IC50 for ALKBH5 (66 to 292 residues) (unknown origin) extracted from Escherichia coli BL21 (DE3) cells by fluorescence polarization assay. A general note: In fluorescence polarisation assays a small probe gives low polarisation when free and higher when bound to something large.

Assay [5] is described as follows: Selectivity ratio of IC50 for ALKBH3 (unknown origin) to IC50 for ALKBH5 (66 to 292 residues) (unknown origin) extracted from Escherichia coli BL21 (DE3) cells by restriction enzyme digestion assay.
Assay [6] has as its system MOLM-13. The experiment in a line: Downregulation of AXL mRNA expression levels in human MOLM-13 cells at 10 to 80 uM incubated for 72 hrs by qRT-PCR analysis. The assay is classed as functional, cell-based. The conditions noted are these: dose 10-80 µM. For orientation: In qPCR the cycle at which signal appears reflects the starting amount.
For assay [7], the system named is MOLM-13. The experiment in a line: Downregulation of AXL protein expression levels in human MOLM-13 cells at 20 to 80 uM incubated for 72 hrs by Western blot analysis. The following applies: dose 20-80 µM. The assay is classed as functional, cell-based.
The subject of assay [8] is MOLM-13. The experiment in a line: Induction of cell cycle arrest in human MOLM-13 cells assessed as accumulation of cells at G2/M phase at 80 uM incubated for 72 hrs by flow cytometry analysis (reference value: 17.53 %). The assay is classed as functional.

T1 sequence (Q6P6C2 whole entry, the tested form may be a part): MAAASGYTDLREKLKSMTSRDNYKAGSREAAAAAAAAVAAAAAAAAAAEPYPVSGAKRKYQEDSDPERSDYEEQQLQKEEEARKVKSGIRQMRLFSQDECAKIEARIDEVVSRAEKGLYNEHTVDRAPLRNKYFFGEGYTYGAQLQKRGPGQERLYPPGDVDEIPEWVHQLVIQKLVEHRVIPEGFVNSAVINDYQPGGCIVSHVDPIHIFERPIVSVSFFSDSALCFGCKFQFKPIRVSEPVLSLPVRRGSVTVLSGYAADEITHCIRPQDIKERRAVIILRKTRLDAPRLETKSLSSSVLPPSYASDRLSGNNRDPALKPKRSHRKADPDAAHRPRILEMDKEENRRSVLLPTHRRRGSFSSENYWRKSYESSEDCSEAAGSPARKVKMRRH

Take `O=Cc1cc(S(=O)(=O)NC(=O)c2cc(C(=O)O)ccn2)c2ccccc2c1O`: the results for the Kd on RNA demethylase ALKBH5 [1] and at RNA demethylase ALKBH5 [2] were 2630 nM and 650 nM, respectively. In assay [3], this compound came in with an IC50 of 11700 nM. The Ratio IC50 in assay [4] came out at 20; in assay [5] it was 30. Further, the outcome in the assay with MOLM-13 [6] and in the assay with MOLM-13 [7] was Active. For the same compound, in the assay on MOLM-13 [8], the Activity came out at 22.22%.
